Test results as given in patent US7311393B2, “Inkjet recording ink and method of inkjet recording” (Fujifilm Corporation, priority 2002, dated 2007).

Columns and labels:
[1] = Oxidation potential of dye; assay type: physicochemical; conditions: comparative dyes
Protocol: More specifically, a test sample is dissolved to a concentration of 1×10^−4 to 1×10^−6 mol/liter in a solvent such as dimethylformamide or acetonitrile containing a supporting electrolyte such as sodium perchlorate or tetrapropylammonium perchlorate and the oxidation potential is measured as a value to SCE (saturated calomel electrode) by using a cyclic voltammetry or a direct current polarography. This value sometimes deviates on the order of tens of millivolt due to the effect of liquid junction potential, liquid resistance of sample solution, or the like, but the reproducibility of potential can be guaranteed by adding a standard sample (for example, hydroquinone).
In order to univocally specify the potential, in the present invention, the value (vs SCE) measured by a direct current polarography in a dimethylformamide (concentration of dye: 0.001 mol dm^−3) containing 0.1 mol dm^−3 of tetrapropylammonium perchlorate as the supporting electrolyte is used as the oxidation potential of the dye.

[2] = Spectral absorption characteristics of dye; assay type: physicochemical; conditions: comparative dyes
From the text: The dye for use in the present invention preferably has good fastness and also has good color hue, particularly, no tailing on the long-wave side in the absorption spectrum. […]

Molecule	oxidation potential [1]	I(λmax)/I(λmax+70 nm) [2]
Cc1nn(-c2ccc(S(=O)(=O)[O-])cc2)c(O)c1/N=N/c1cccc(S(=O)(=O)Nc2cc(C(=O)[O-])cc(C(=O)[O-])c2)c1.[K+].[K+].[K+] [Dye (C)]	≤ 1.0 V (vs SCE)	≤ 0.4
Direct Yellow 11 [Dye (D)]	≤ 1.0 V (vs SCE)	> 0.4
